In general, pKd refers to the negative decadic logarithm of the Kd, by convention in mol/L.

Structures are written as SMILES. Changes are numbered by the printed parent chain. pKd: −log10 of the molar value. Like-named read-outs stand apart in the source and are kept apart here.

We go through five compounds from PMC10127606, “Salmonella Invasion Is Controlled by Competition among Intestinal Chemical Signals” (mBio, 2023).

In data set [1] the target is T1, HilD (Salmonella typhimurium, UniProt P0CL08).
T1 sequence (P0CL08 1-309): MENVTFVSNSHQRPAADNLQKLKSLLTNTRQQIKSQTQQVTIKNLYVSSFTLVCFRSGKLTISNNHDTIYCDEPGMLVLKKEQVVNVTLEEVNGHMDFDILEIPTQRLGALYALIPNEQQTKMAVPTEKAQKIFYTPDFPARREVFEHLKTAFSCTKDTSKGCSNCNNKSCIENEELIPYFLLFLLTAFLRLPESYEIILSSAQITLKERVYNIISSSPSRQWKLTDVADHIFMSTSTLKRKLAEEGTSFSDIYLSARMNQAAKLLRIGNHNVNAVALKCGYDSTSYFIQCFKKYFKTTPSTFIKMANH
The data set can be described thus: biochemical. The data set is classed as binding. Set-up: made in house; host or cells: E. coli BL21(DE3), pET15b. The procedure: (§1) Assays were performed as previously described in detail in Chowdhury et al. ([15], [16]). Briefly, 96-well polystyrene plates coated with various concentrations of fatty acids in coating buffer (0.05 M sodium carbonate-bicarbonate, pH 9.3) were incubated overnight at 4°C. The wells were washed three times with PBS, followed by the addition of 200 μL blocking buffer (1% Ficoll 400 in PBS). […] The wells were washed, incubated with a 1:1,000 dilution of anti-His tag antibody, and incubated at room temperature for an hour. After washing, the wells were incubated with a 1:5,000 dilution of anti-mouse secondary antibody for an hour. Finally, the wells were washed three times with PBS-T (PBS plus 0.1% Tween 20), and 100 μL OPD (o-phenylenediamine) substrate was added. After color development, the reaction was ended with 1 N sulfuric acid and read spectrophotometrically at 490 nm. Data were analyzed in GraphPad Prism. Nonlinear regression was plotted, and one-site total binding was performed to calculate Kd values.
hilD alleles were cloned into pET15b(+), expressed, and purified as described in detail previously ([15]). Briefly, the pET15b-6XHis-hilD or pET15b-6XHis-hilD^Q290A or pET15b-6XHis-hilD^K293A plasmid was transformed into E. coli BL21(DE3) for expression. Transformants were induced with 5 mM IPTG (isopropyl β-D-1-thiogalactopyranoside) for 4 h. Cultures were centrifuged, lysed, treated with TALON beads, and applied to protein purification columns. Bound protein was eluted and confirmed by SDS-PAGE. Following confirmation, eluted samples were dialyzed overnight. The final protein concentration and quality after dialysis were assessed by Bradford estimation and SDS-PAGE.

Data set [2] addresses T2, HilD^Q290A (Salmonella typhimurium, UniProt P0CL08, Q290A).
T2 construct: made in house; host or cells: E. coli BL21(DE3), pET15b
T2 sequence (P0CL08 1-309 Q290A): T1 sequence (P0CL08 1-309) with Q290A
Briefly: ELISA binding of fatty acids to mutant HilD^Q290A. The procedure: as §1
(§2) hilD alleles were cloned into pET15b(+), expressed, and purified as described in detail previously ([15]). Briefly, the pET15b-6XHis-hilD or pET15b-6XHis-hilD^Q290A or pET15b-6XHis-hilD^K293A plasmid was transformed into E. coli BL21(DE3) for expression. […] The final protein concentration and quality after dialysis were assessed by Bradford estimation and SDS-PAGE.
(In general: ELISA stands for enzyme-linked immunosorbent assay.)

Data set [3] relates to invasion gene hilA expression. The data set can be described thus: hilA-luxCDABE transcriptional reporter luciferase assay. The data set is classed as cell-based. Particulars: no formic acid preincubation; 500 nM c2-HDA, 40 μM oleic acid, 10 mM propionic acid. The procedure:
Salmonella strains carrying luxCDABE reporter plasmids were grown overnight in 5 mL LB broth with appropriate antibiotics. These were subcultured (1:100) in M9 minimal medium with 0.2% glucose and antibiotics for 16 h. […] These were incubated for 3 h at 37°C in an incubator without aeration. Dimethyl sulfoxide (DMSO) or different concentrations of fatty acids were added to the reaction, and replicate aliquots were introduced into the BioTek Synergy H1 microplate reader. Luminescence and OD600 were recorded every half-hour for 24 h. Data were analyzed in GraphPad Prism. For every treatment, the area under the curve (AUC) was calculated. DMSO was normalized to 100%, and other reactions were calculated accordingly.

For data set [4], the system named is invasion gene sipC expression. The data set can be described thus: sipC::lacZY reporter β-galactosidase assay. The data set is classed as cell-based. As to conditions: no formic acid preincubation; 10 μM c2-HDA, 40 μM oleic acid. The procedure:
The β-galactosidase assay was performed using the method of Miller, as previously described in detail ([39]). Miller units were calculated using the following equation: Miller units = (OD420 × 1,000)/(OD600 × t × v), where t is the time (minutes) the reaction was allowed to continue before adding the stop solution, v is the volume of culture (mL) assayed, and OD420 and OD600 are the densities of the cultures at 420 and 600 nm, respectively. All reactions were performed in quadruplicates. Data were analyzed in Excel and plotted in GraphPad Prism.

The target in data set [5] is T3, HilD-hilA complex (Salmonella typhimurium, UniProt P0CL08).
T3 construct: made in house; host or cells: E. coli BL21(DE3), pET15b
T3 sequence (P0CL08 1-309): T1 sequence (P0CL08 1-309)
The data set can be described thus: EMSA of HilD binding to hilA promoter DNA. Particulars: c2-HDA 20 μM, t2-HDA 40 μM, oleic acid 50 μM; no formic acid. For orientation: A gel shift assay detects complexes by their altered migration in electrophoresis.
Method: Assays were performed as previously described ([15], [16]). […] Various concentrations of the fatty acids (c2-HDA, 20 μM; t2-HDA, 40 μM; or oleic acid, 50 μM) or control solvents were added, and the reaction was incubated at room temperature for 1 h. Dye solution (10 mM Tris, 1 mM EDTA, 50% vol/vol glycerol, 0.001% wt/vol bromophenol blue) was added to a final concentration of 1×, and samples were separated on 7% acrylamide gels. DNA was stained using SYBR Safe and visualized in a Bio-Rad GelDoc imaging system.

Data set [6] addresses T4, HilD^K293A (Salmonella typhimurium, UniProt P0CL08, K293A).
T4 construct: made in house; host or cells: E. coli BL21(DE3), pET15b
T4 sequence (P0CL08 1-309 K293A): T1 sequence (P0CL08 1-309) with K293A
The data set can be described thus: ELISA binding of fatty acids to mutant HilD^K293A. The procedure:
as §1, §2

Data set [7] has as its target T1, HilD. The data set is classed as cell-based. Set-up: The stability of HilD in Salmonella carrying a chromosomal tetRA-hilD-3×FLAG tag; expressed in transfected cells; host or cells: Salmonella Typhimurium strain CA2446 (tetRA-hilD-3XFLAG attλ:pDX1::hilA'-lacZ). The procedure:
Assays were performed as previously described ([22]). Salmonella strains carrying a chromosomal tetracycline-inducible hilD with a C-terminal 3×FLAG tag and a hilA::lacZY fusion (for invasion gene expression assessment) were grown overnight in LB and then diluted 1:100 into LB buffered with 100 mM MOPS (pH 6.7) with 2.5 μg/mL tetracycline. […] After 1 h of incubation at 37°C with aeration, samples were collected to measure hilA::lacZY expression in a β-galactosidase assay. Individual cultures were then equilibrated to an OD600 of 1. New protein production was halted by adding an antibiotic combination (100 μg/mL rifampin, 200 μg/mL streptomycin, and 50 μg/mL spectinomycin). These cultures were incubated at 37°C with aeration, and 200-μL aliquots were collected every 30 min for 4 h. Samples were lysed in 5× Laemmli buffer, boiled, and immunoblotted with an anti-FLAG antibody to monitor HilD levels.

Where [8] appears, read: HilD preincubated with formic acid (500 μM), read-out: Kd.
[9] abbreviates: HilD without formic acid preincubation, read-out: Kd.
Where [10] appears, read: Kd, HilD preincubated with formic acid (500 μM).
[11] abbreviates: Kd, HilD without formic acid preincubation.

As to `CCCCCCCCCCCCCCCCC/C=C\C(=O)O` [c2-EA], the pKd is 3.42 in data set [1] (setting [8]) and 4.02 in data set [1] (setting [9]).
On to `CCCCCCCCCCCCC/C=C\C(=O)O` [c2-HDA, cis-2-hexadecenoic acid], for which the figures for the pKd in data set [2], in data set [1] (setting [10]) and in data set [1] (setting [11]) were 4.90, 4.09 and 5.28, respectively. The “effect on hilA expression” value in data set [3] is “drastically reduced hilA expression”. In data set [4], the “effect on sipC expression” value is recorded as “repressed”. Further, the “effect on HilD-hilA complex” value in data set [5] is on record as “disrupted the HilD-hilA complex”.
`CCCCCCCC/C=C\CCCCCCCC(=O)O` [oleic acid]: the results for the pKd in data set [6], in data set [1] (setting [10]) and in data set [1] (setting [11]) were 3.92, 2.86 and 3.87, respectively. For the same compound, the “effect on hilA expression” value in data set [3] was “severely repressed”. In addition, the “effect on sipC expression” value in data set [4] is on record as “repressed”. Besides, the “effect on HilD-hilA complex” value in data set [5] was “disrupted the HilD-hilA complex”.
On to `CCC(=O)O` [propionic acid], for which the “effect on hilA expression” value in data set [3] is reported as “severely repressed”.
As to `CCCCCCCCCCCCC/C=C/C(=O)O` [t2-HDA], the “effect on HilD-hilA complex” value in data set [5] was “disrupted the HilD-hilA complex”. In addition, the negative-log Kd (pKd) in data set [1] (setting [8]) is 3.75; in data set [1] (setting [9]), 4.80. For the same compound, the HilD half-life is on record as ~ 127 min in data set [7] (fatty acid 20 μM after preincubation with formic acid (10 mM)) and ~ 28 min in data set [7] (fatty acid 20 μM, no formic acid preincubation (DMSO control ~227 min)).
